Measured values: PubChem BioAssay (NCI)
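The compound was tested at five concentrations on cells cultured in 96-well plates, with a 48-hour exposure period. TGI: concentration producing complete growth inhibition.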

Experiments:
Test in all cases: NCI tumour cell line growth inhibition, 48 h
LXFL 529 NSCLC = test system: LXFL 529 NSCLC
RXF-631 renal = test system: RXF-631 renal
DLD-1 colon = test system: DLD-1 colon
M19-MEL melanoma = test system: M19-MEL melanoma
HOP-18 NSCLC = test system: HOP-18 NSCLC
XF 498 CNS = test system: XF 498 CNS
P388/ADR leukemia = test system: P388/ADR leukemia
SN12K1 renal = test system: SN12K1 renal
P388 leukemia = test system: P388 leukemia

SMILES | TGI (LXFL 529 NSCLC) [µM] | TGI (RXF-631 renal) [µM] | TGI (DLD-1 colon) [µM] | TGI (M19-MEL melanoma) [µM] | TGI (HOP-18 NSCLC) [µM] | TGI (XF 498 CNS) [µM] | TGI (P388/ADR leukemia) [µM] | TGI (SN12K1 renal) [µM] | TGI (P388 leukemia) [µM]
[N-]=[N+]=C1C(=O)C2CC3CC1CC2C3 (centres undefined) | > 100 | > 100 | > 100 | > 100 | > 100 |  |  |  | 
C/C=C(\C)C(=O)OC1C2C(C)=CC(=O)C(O)C2(C)C2C3(O)OCC24C1OC(=O)C(OC(C)=O)C4C(C)C3O (centres undefined) |  |  | 0.078 | 0.0455 | 0.792 | 0.0577 | 0.924 |  | 
CSc1nc2nccnc2c(=O)[nH]1 | > 100 |  | > 100 | > 100 | > 100 | > 100 |  |  | 
CC1=C(C(=O)O)N2C(=O)[C@@H](NC(=O)C(c3ccccc3)N3CSC(=S)N(C(C)C)C3)C2SC1 (some centres undefined) | > 100 |  | > 100 | > 100 | > 100 | > 100 |  |  | 
CC(C)(Oc1ccc2c(=O)cc(-c3ccc(Cl)cc3)oc2c1)C(=O)Nc1c(Cl)cccc1Cl | > 100 |  | > 100 | > 100 | > 100 | > 100 |  |  | 
CC1=C(O)C(=O)C2C(=O)C1C(C)C2c1ccccc1 (centres undefined) | > 100 |  | > 100 | > 100 |  | > 100 |  |  | 
CCOC(=O)NC(=O)c1cn(CCN(CCO)C(=O)NCCCCCCNC(=O)N(CCO)CCn2cc(C(=O)NC(=O)OCC)c(=O)[nH]c2=O)c(=O)[nH]c1=O |  |  | > 100 | > 100 | > 100 | > 100 | > 100 | > 100 | > 100
O=C([O-])c1ccccc1Nc1ccccc1C(=O)[O-].[OH3+].[Zn+2] | 44.7 |  | > 83.7 | 50.1 | > 75.9 | 57.3 |  |  | 
N/C(=C\c1ccc(/C=C(\NC(=O)c2ccccc2)c2nc3c([nH]2)C(=O)c2ccccc2C3=O)cc1)c1nc2c([nH]1)C(=O)c1ccccc1C2=O | 24.6 |  | 33 |  | 28.4 | 24.3 |  |  | 
COC(=O)CC(C(C(=O)OCc1ccccc1)C(C)O)N1C(=O)OCC1c1ccccc1 (centres undefined) | > 100 |  | > 100 | > 100 |  | > 100 |  |  | 
